In patent US20210369680A1, “METHODS OF TREATING DISEASES AND DISORDERS RESULTING FROM BETA CORONAVIRUS INFECTION” (T3D Therapeutics, Inc., priority 2020, published 2021):
“And” between values parts separate entries of the source, which are not always exact repeats. Identical values can stand only once.

How the values were obtained:
[1] = Rat brain penetrance pharmacokinetics after oral dosing; type: in vivo, male Sprague-Dawley rats; settings: for B/P Ratio / Brain Tissue Cone. / Plasma Conc.: individual rats; for Average (B/P Ratio): mean of 3 rats
From the text: Determination of Brain to Plasma Ratios for Compound of Example 11
For compounds of the present disclosure to be effective in treating cognitive impairment, it must have an ability to cross the BBB and penetrate the brain. […] The plasma exposure as measured by AUClast was 9569±1190 hr*ng/mL.

[2] = Clinical DSST in subjects with mild-to-moderate dementia (Phase 2a); type: in vivo, human
From the text: Clinical DSST Data in Cognitively Impaired Subjects
DSST is a commonly used tests in clinical neuropsychology, and has been used to measure a range of cognitive functions including intact motor speed, attention, executive, and visuo-perceptual functions. Reference is made to Jaeger J. Digit Symbol Substitution Test: The Case for Sensitivity Over Specificity hi Neuropsychological Testing. J Clin Psychopharmacol. 2018; 38(5):513-519. doi:10.1097/JCP.0000000000000941, which is incorporated by reference with regard to the example. DSST scores were assessed in a randomized, parallel, 4-dose Phase 2a study in subjects with mild-to-moderate dementia (MMSE for mild 20-26, for moderate 14-19) before and after treatment with compound of Example 11. A total of 34 subjects were randomized to one of 4 doses of drug, 3 mg (n=8), 10 mg (n=9), 30 mg (n=9) or 90 mg (n=8) administered orally once-a-day for 14 days then followed-up at day 21 (7-days post-dosing discontinuation.
DSST scores are based on the number of correct substitutions in a fixed timeframe, and a higher score in the DSST denotes improvement. Data was collected at four time points for all subjects in each of the four dose groups: Prescreen (PS, one week before BL), baseline (BL), end-of-treatment (EOT) and follow-up (FU, one week after EOT). The DSST results averaged across all subjects at PS (14.1, SD=11.8) and BL (13.9, SD=12.5) were quite similar as would be expected. The larger standard deviations, and the wide range of scores (zero to 48) reflects the broad range of cognitive function in the 34 subjects in this trial. DSST averages per dose group at PS were: 3 mg, 13.88 (SD=10.83); 10 mg, 14.33 (SD=13.52); 30 mg, 18.78 (SD=14.52); and 90 mg, 8.88 (SD=6.56). The data is best described as averaged differences in individual results as it reduces variability. For all 34 subjects, the change in DSST score was −0.21 (SD=4.23) for (BL-PS), and 3.5 (SD=5.51) for (FU-EOT), with unpaired t-test p-value of 0.005. […]

P-glycoprotein (P-gp) = biological target: T1, P-glycoprotein (P-gp) (Homo sapiens, UniProt P08183); experiment: Effect of P-gp inhibitor verapamil on Caco-2 permeability; type: in vitro ADME
T1 construct: endogenous in cells; host or cells: Caco-2 cells
T1 sequence (P08183 whole entry): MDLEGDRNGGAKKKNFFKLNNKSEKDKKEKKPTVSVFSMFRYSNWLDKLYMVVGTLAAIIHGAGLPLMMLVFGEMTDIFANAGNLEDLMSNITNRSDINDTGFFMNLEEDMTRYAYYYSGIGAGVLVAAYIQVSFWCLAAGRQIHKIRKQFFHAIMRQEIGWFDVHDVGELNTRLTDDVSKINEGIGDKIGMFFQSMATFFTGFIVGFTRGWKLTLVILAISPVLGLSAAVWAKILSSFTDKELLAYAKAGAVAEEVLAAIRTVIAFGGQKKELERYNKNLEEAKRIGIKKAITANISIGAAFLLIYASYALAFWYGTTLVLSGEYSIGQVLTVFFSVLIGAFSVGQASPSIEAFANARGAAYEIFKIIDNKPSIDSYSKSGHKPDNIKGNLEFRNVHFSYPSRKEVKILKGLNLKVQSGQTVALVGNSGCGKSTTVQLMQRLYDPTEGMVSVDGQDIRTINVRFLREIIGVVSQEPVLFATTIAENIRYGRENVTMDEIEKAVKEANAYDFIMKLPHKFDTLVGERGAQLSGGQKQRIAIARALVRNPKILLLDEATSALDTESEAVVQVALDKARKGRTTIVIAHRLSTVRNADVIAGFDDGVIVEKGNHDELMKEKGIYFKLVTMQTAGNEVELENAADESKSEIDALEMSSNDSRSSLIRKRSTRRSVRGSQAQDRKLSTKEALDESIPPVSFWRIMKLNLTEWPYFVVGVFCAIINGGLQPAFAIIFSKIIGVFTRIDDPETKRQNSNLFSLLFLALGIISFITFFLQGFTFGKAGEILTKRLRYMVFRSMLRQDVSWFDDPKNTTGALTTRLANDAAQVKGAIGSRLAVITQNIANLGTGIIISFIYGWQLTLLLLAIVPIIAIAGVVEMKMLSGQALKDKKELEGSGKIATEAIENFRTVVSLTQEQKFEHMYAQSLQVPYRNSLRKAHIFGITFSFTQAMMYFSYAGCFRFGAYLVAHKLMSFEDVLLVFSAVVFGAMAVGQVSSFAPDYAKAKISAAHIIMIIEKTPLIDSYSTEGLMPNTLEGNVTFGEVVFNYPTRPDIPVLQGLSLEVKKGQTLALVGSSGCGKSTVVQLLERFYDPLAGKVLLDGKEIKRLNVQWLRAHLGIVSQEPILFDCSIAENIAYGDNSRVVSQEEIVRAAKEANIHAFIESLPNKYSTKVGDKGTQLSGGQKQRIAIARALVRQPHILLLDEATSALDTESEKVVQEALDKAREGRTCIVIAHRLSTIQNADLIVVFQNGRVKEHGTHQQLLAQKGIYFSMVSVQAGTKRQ
From the text: Example 18: Effect of P-gp Inhibitor Verapamil on Caco-2 Permeability of Compound of Example 11

## CCc1oc(-c2ccc(OC)cc2)nc1CCOc1ccc2c(c1)CC[C@H]2CC(=O)[O-].[Na+] [Example 11, Sodium (S)-2-(5-(2-(5-ethyl-2-(4-methoxyphenyl)oxazol-4-yl)ethoxy)-2,3-dihydro-1H-inden-1-yl)acetate]
[1]; 1 hour, rat, oral 3 mg/kg
  Brain/Plasma ratio: 0.361±0.142
[1]; 1.0 hr
  B/P Ratio: 0.36 and 0.51 and 0.22
  Brain Tissue Cone.: 161 ng/g and 101 ng/g and 226 ng/g
  Plasma Conc.: 453 ng/mL and 199 ng/mL and 1020 ng/mL
  Average (B/P Ratio): 0.361
[1]; 3 hours, rat, oral 3 mg/kg
  Brain/Plasma ratio: 0.220±0.033
[1]; 3.0 hr
  B/P Ratio: 0.26 and 0.21 and 0.19
  Brain Tissue Cone.: 234 ng/g and 269 ng/g and 274 ng/g
  Plasma Conc.: 1270 ng/mL and 1430 ng/mL
  Average (B/P Ratio): 0.220
[1]; 5 hours, rat, oral 3 mg/kg
  Brain/Plasma ratio: 0.171±0.011
[1]; 5.0 hr
  B/P Ratio: 0.17 and 0.18 and 0.16
  Brain Tissue Cone.: 208 ng/g and 247 ng/g and 333 ng/g
  Plasma Conc.: 1260 ng/mL and 1340 ng/mL and 2040 ng/mL
  Average (B/P Ratio): 0.171
[1]; 7 hours, rat, oral 3 mg/kg
  Brain/Plasma ratio: 0.328±0.154
[1]; 7.0 hr
  B/P Ratio: 0.16 and 0.35 and 0.47
  Brain Tissue Cone.: 203 ng/g and 216 ng/g
  Plasma Conc.: 1240 ng/mL and 368 ng/mL and 462 ng/mL
  Average (B/P Ratio): 0.328
[1]; 12 hours, rat, oral 3 mg/kg
  Brain/Plasma ratio: 0.350±0.077
[1]; 12.0 hr
  B/P Ratio: 0.30 and 0.44 and 0.31
  Brain Tissue Cone.: 104 ng/g and 114 ng/g and 117 ng/g
  Plasma Conc.: 345 ng/mL and 259 ng/mL and 377 ng/mL
  Average (B/P Ratio): 0.350
[1]; rat, oral 3 mg/kg
  average plasma half-life: 3.33 h
  plasma Cmax: 1547 ± 248 ng/mL
  plasma exposure AUClast: 9569 ± 1190 ng·h/mL
[2]; 3 mg group
  change in DSST score EOT-PS: 0.57
[2]; 10 mg group
  change in DSST score FU-PS: 3.14
[2]; all 34 subjects
  change in DSST score (FU-EOT): 3.5
P-glycoprotein (P-gp)
  substrate for P-gp: not a substrate
